Here are results for 27 compounds from US20080090845A1, “Haloalkyl-substituted pyrimidinone derivatives” (Neurogen Corporation, priority 2006, published 2008).

The target in one test is T1, human capsaicin receptor (Homo sapiens, UniProt Q8NER1).
T1 construct: pBK-CMV expression construct encoding the full length human capsaicin receptor; expressed in transfected cells
T1 sequence (Q8NER1 whole entry): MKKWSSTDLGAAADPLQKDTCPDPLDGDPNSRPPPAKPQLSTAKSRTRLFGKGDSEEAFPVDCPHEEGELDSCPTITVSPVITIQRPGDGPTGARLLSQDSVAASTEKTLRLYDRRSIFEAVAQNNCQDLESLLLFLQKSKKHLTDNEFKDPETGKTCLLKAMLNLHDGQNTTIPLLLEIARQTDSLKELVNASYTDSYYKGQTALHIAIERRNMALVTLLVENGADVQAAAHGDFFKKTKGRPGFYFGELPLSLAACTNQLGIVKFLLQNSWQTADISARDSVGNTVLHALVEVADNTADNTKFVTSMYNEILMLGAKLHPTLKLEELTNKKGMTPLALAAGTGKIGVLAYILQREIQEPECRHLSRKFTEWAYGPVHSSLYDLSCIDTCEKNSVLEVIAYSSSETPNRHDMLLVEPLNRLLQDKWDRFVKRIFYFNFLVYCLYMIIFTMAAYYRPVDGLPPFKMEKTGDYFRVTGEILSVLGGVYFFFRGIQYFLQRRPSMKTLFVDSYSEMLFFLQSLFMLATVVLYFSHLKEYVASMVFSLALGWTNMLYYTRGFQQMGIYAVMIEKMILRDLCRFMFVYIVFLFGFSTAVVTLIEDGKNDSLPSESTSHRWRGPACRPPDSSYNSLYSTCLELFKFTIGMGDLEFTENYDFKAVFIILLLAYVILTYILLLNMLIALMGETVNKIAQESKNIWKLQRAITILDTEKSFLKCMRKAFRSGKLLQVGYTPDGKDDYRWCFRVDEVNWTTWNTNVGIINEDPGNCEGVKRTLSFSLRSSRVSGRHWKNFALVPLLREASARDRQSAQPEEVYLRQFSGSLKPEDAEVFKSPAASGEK
The test is described as follows: Calcium mobilization assay, determination of antagonist activity (Example 6). The test is classed as cell-based. As to conditions: cells expressing human capsaicin receptor, capsaicin-induced fluorescence response; read-out: IC50. On the procedure:
A cDNA encoding full length human capsaicin receptor (SEQ ID NO:1, 2 or 3 of U.S. Pat. No. 6,482,611) is subcloned in the plasmid pBK-CMV (Stratagene, La Jolla, Calif.) for recombinant expression in mammalian cells.
Human embryonic kidney (HEK293) cells are transfected with the pBK-CMV expression construct encoding the full length human capsaicin receptor using standard methods. The transfected cells are selected for two weeks in media containing G418 (400 μg/ml) to obtain a pool of stably transfected cells. Independent clones are isolated from this pool by limiting dilution to obtain clonal stable cell lines for use in subsequent experiments.
Cells transfected with expression plasmids (as described in Example 4) and thereby expressing human capsaicin receptor are seeded and grown to 70-90% confluency in FALCON black-walled, clear-bottomed 96-well plates (#3904, BECTON-DICKINSON, Franklin Lakes, N.J.). The culture medium is emptied from the 96 well plates and FLUO-3 AM calcium sensitive dye (Molecular Probes, Eugene, Oreg.) is added to each well (dye solution: 1 mg FLUO-3 AM, 440 μl DMSO and 440 μl 20% pluronic acid in DMSO diluted 1:250 in Krebs-Ringer HEPES (KRH) buffer (25 mM HEPES, 5 mM KCl, 0.96 mM NaH2PO4, 1 mM MgSO4, 2 mM CaCl2, 5 mM glucose, 1 mM probenecid, pH 7.4), 50 μl diluted solution per well). Plates are covered with aluminum foil and incubated at 37° C. for 1-2 hours in an environment containing 5% CO2. After the incubation, the dye is emptied from the plates, and the cells are washed once with KRH buffer, and resuspended in KRH buffer.
To measure the ability of a test compound to agonize or antagonize a calcium mobilization response in cells expressing capsaicin receptors to capsaicin or other vanilloid agonist, the EC50 of the agonist capsaicin is first determined. An additional 20 μl of KRH buffer and 1 μl DMSO is added to each well of cells, prepared as described above. 100 μl capsaicin in KRH buffer is automatically transferred by the FLIPR instrument to each well. Capsaicin-induced calcium mobilization is monitored using either FLUOROSKAN ASCENT (Labsystems; Franklin, Mass.) or FLIPR (fluorometric imaging plate reader system; Molecular Devices, Sunnyvale, Calif.) instruments. Data obtained between 30 and 60 seconds after agonist application are used to generate an 8-point concentration response curve, with final capsaicin concentrations of 1 nM to 3 μM. KALEIDAGRAPH software (Synergy Software, Reading, Pa.) is used to fit the data to the equation: y=a*(1/(1+(b/x)^c)) to determine the 50% excitatory concentration (EC50) for the response. In this equation, y is the maximum fluorescence signal, x is the concentration of the agonist or antagonist (in this case, capsaicin), a is the Emax, b corresponds to the EC50 value and c is the Hill coefficient. Determination of Agonist Activity
Test compounds are dissolved in DMSO, diluted in 20 μl KRH buffer so that the final concentration of test compounds in the assay well is between 1 μM and 5 μM, and added to cells prepared as described above. The 96 well plates containing prepared cells and test compounds are incubated in the dark, at room temperature for 0.5 to 6 hours. It is important that the incubation not continue beyond 6 hours. Just prior to determining the fluorescence response, 100 μl capsaicin in KRH buffer at twice the EC50 concentration determined as described above is automatically added by the FLIPR instrument to each well of the 96 well plate for a final sample volume of 200 μl and a final capsaicin concentration equal to the EC50. The final concentration of test compounds in the assay wells is between 1 μM and 5 μM. […] The concentration of antagonist required to provide a 50% decrease, relative to the response observed in the presence of capsaicin and without antagonist, is the IC50 for the antagonist, and is preferably below 1 micromolar, 100 nanomolar, 10 nanomolar or 1 nanomolar.
As a reminder, the IC50 is the concentration that gives 50% inhibition. For the compound `CCn1cnc2c(=O)n(-c3ccc(Cl)cc3)c(CC(C)C(F)(F)F)nc21` (stereo not drawn) [Compound 8, 1-(4-chlorophenyl)-9-ethyl-2-(3,3,3-trifluoro-2-methylpropyl)-1,9-dihydro-6H-purin-6-one], the IC50 is at most 100 nM.
Take `CC(Cc1nc2c(ncn2C)c(=O)n1-c1ccc(Cl)cc1)C(F)(F)F` (stereo not drawn) [Compound 9, 1-(4-chlorophenyl)-9-methyl-2-(3,3,3-trifluoro-2-methylpropyl)-1,9-dihydro-6H-purin-6-one]: the IC50 is at most 100 nM.
On the same count and under the same terms, for `CCn1cnc2c(=O)n(-c3ccc(F)cc3)c(CC(C)C(F)(F)F)nc21` (stereo not drawn) [Compound 10, 9-ethyl-1-(4-fluorophenyl)-2-(3,3,3-trifluoro-2-methylpropyl)-1,9-dihydro-6H-purin-6-one] the value was at most 100 nM; for `CCn1cnc2c(=O)n(-c3ccc(Cl)cc3)c(CC(C)CC(F)(F)F)nc21` (stereo not drawn) [Compound 11, 1-(4-chlorophenyl)-9-ethyl-2-(4,4,4-trifluoro-2-methylbutyl)-1,9-dihydro-6H-purin-6-one], at most 100 nM; for `CC(Cc1nc2c(ncn2C)c(=O)n1-c1ccc(Cl)cc1)CC(F)(F)F` (stereo not drawn) [Compound 12, 1-(4-chlorophenyl)-9-methyl-2-(4,4,4-trifluoro-2-methylbutyl)-1,9-dihydro-6H-purin-6-one], at most 100 nM.
Still for that read-out and setting: the value for `CCn1cnc2c(=O)n(-c3ccc(F)cc3)c(CC(C)CC(F)(F)F)nc21` (stereo not drawn) [Compound 13, 9-ethyl-1-(4-fluorophenyl)-2-(4,4,4-trifluoro-2-methylbutyl)-1,9-dihydro-6H-purin-6-one] was at most 100 nM; that for `CC(Cc1nc2c(ncn2C)c(=O)n1-c1ccc(F)cc1)CC(F)(F)F` (stereo not drawn) [Compound 14, 1-(4-fluorophenyl)-9-methyl-2-(4,4,4-trifluoro-2-methylbutyl)-1,9-dihydro-6H-purin-6-one] was at most 100 nM; that for `CC(Cc1nc2c(ncn2C2CC2)c(=O)n1-c1ccc(Cl)cc1)CC(F)(F)F` (stereo not drawn) [Compound 15, 1-(4-chlorophenyl)-9-cyclopropyl-2-(4,4,4-trifluoro-2-methylbutyl)-1,9-dihydro-6H-purin-6-one] was at most 100 nM.
On the same count and under the same terms, for `CCn1cnc2c(=O)n(-c3ccc(Cl)cc3)c(CCC(C)C(F)(F)F)nc21` (stereo not drawn) [Compound 16, 1-(4-chlorophenyl)-9-ethyl-2-(4,4,4-trifluoro-3-methylbutyl)-1,9-dihydro-6H-purin-6-one] the value was at most 100 nM; for `CC(CCc1nc2c(ncn2C)c(=O)n1-c1ccc(Cl)cc1)C(F)(F)F` (stereo not drawn) [Compound 17, 1-(4-chlorophenyl)-9-methyl-2-(4,4,4-trifluoro-3-methylbutyl)-1,9-dihydro-6H-purin-6-one], at most 100 nM.
Turning to `CCn1cnc2c(=O)n(-c3ccc(F)cc3)c(CCC(C)C(F)(F)F)nc21` (stereo not drawn) [Compound 18, 9-ethyl-1-(4-fluorophenyl)-2-(4,4,4-trifluoro-3-methylbutyl)-1,9-dihydro-6H-purin-6-one], the IC50 was at most 100 nM.
The same measure, in the same setting: for `CC(CCc1nc2c(ncn2C)c(=O)n1-c1ccc(F)cc1)C(F)(F)F` (stereo not drawn) [Compound 19, 1-(4-fluorophenyl)-9-methyl-2-(4,4,4-trifluoro-3-methylbutyl)-1,9-dihydro-6H-purin-6-one] the value was at most 100 nM; for `CC(Cc1nc2c(ncn2CC(F)(F)F)c(=O)n1-c1ccc(Cl)cc1)CC(F)(F)F` (stereo not drawn) [Compound 20, 1-(4-chlorophenyl)-9-(2,2,2-trifluoroethyl)-2-(4,4,4-trifluoro-2-methylbutyl)-1,9-dihydro-6H-purin-6-one], at most 100 nM.
Still for that read-out and setting: the value for `CC(Cc1nc2c(ncn2CC(F)F)c(=O)n1-c1ccc(Cl)cc1)CC(F)(F)F` (stereo not drawn) [Compound 21, 1-(4-chlorophenyl)-9-(2,2-difluoroethyl)-2-(4,4,4-trifluoro-2-methylbutyl)-1,9-dihydro-6H-purin-6-one] was at most 100 nM; that for `CC(Cc1nc2c(ncn2CC(F)F)c(=O)n1-c1ccc(Cl)cc1)C(F)(F)F` (stereo not drawn) [Compound 22, 1-(4-chlorophenyl)-9-(2,2-difluoroethyl)-2-(3,3,3-trifluoro-2-methylpropyl)-1,9-dihydro-6H-purin-6-one] was at most 100 nM.
On the same count and under the same terms, for `CC(CCc1nc2c(ncn2CC(F)F)c(=O)n1-c1ccc(Cl)cc1)C(F)(F)F` (stereo not drawn) [Compound 23, 1-(4-chlorophenyl)-9-(2,2-difluoroethyl)-2-(4,4,4-trifluoro-3-methylbutyl)-1,9-dihydro-6H-purin-6-one] the value was at most 100 nM; for `CC(Cc1nc2c(ncn2CC(F)(F)F)c(=O)n1-c1ccc(Cl)cc1)C(F)(F)F` (stereo not drawn) [Compound 24, 1-(4-chlorophenyl)-9-(2,2,2-trifluoroethyl)-2-(3,3,3-trifluoro-2-methylpropyl)-1,9-dihydro-6H-purin-6-one], at most 100 nM; for `CC(CCc1nc2c(ncn2CC(F)(F)F)c(=O)n1-c1ccc(Cl)cc1)C(F)(F)F` (stereo not drawn) [Compound 25, 1-(4-chlorophenyl)-9-(2,2,2-trifluoroethyl)-2-(4,4,4-trifluoro-3-methylbutyl)-1,9-dihydro-6H-purin-6-one], at most 100 nM.
For `CC(Cc1nc2c(ncn2CC(F)F)c(=O)n1-c1ccc(F)cc1)CC(F)(F)F` (stereo not drawn) [Compound 26, 9-(2,2-difluoroethyl)-1-(4-fluorophenyl)-2-(4,4,4-trifluoro-2-methylbutyl)-1,9-dihydro-6H-purin-6-one], the IC50 is at most 100 nM.
`CC(CCc1nc2c(ncn2CC(F)F)c(=O)n1-c1ccc(F)cc1)C(F)(F)F` (stereo not drawn) [Compound 27, 9-(2,2-difluoroethyl)-1-(4-fluorophenyl)-2-(4,4,4-trifluoro-3-methylbutyl)-1,9-dihydro-6H-purin-6-one]: the IC50 is at most 100 nM.
The same measure, in the same setting: for `CC(CCc1nc2c(ncn2C)c(=O)n1-c1ccc(C#N)cc1)C(F)(F)F` (stereo not drawn) [Compound 28, 4-[9-methyl-6-oxo-2-(4,4,4-trifluoro-3-methylbutyl)-6,9-dihydro-1H-purin-1-yl]benzonitrile] the value was at most 100 nM.
The same measure, in the same setting: the value for `CC(Cc1nc2c(ncn2C)c(=O)n1-c1ccc(C#N)cc1)CC(F)(F)F` (stereo not drawn) [Compound 29, 4-[9-methyl-6-oxo-2-(4,4,4-trifluoro-2-methylbutyl)-6,9-dihydro-1H-purin-1-yl]benzonitrile] was at most 100 nM; that for `C[C@H](Cc1nc2c(ncn2C)c(=O)n1-c1ccc(Cl)cc1)CC(F)(F)F` [Compound 30, 1-(4-chlorophenyl)-9-methyl-2-[(2R)-4,4,4-trifluoro-2-methylbutyl]-1,9-dihydro-6H-purin-6-one] was at most 100 nM.
Same read-out and setting: the value for `CCn1cnc2c(=O)n(-c3ccc(C#N)cc3)c(CC(C)CC(F)(F)F)nc21` (stereo not drawn) [Compound 31, 4-[9-ethyl-6-oxo-2-(4,4,4-trifluoro-2-methylbutyl)-6,9-dihydro-1H-purin-1-yl]benzonitrile] was at most 100 nM; that for `C[C@@H](CCc1nc2c(ncn2C)c(=O)n1-c1ccc(Cl)cc1)C(F)(F)F` [Compound 32, 1-(4-chlorophenyl)-9-methyl-2-[(3S)-4,4,4-fluoro-3-methylbutyl]-1,9-dihydro-6H-purin-6-one] was at most 100 nM.

The same test, now with this note: cells expressing human capsaicin receptor, capsaicin-induced fluorescence response; read-out: IC50 determined as described in Example 6.
Take `C[C@H](Cc1nc2c(ncn2C)c(=O)n1-c1ccc(Cl)cc1)C(F)(F)F` [Compound 6, (R)-1-(4-Chlorophenyl)-9-methyl-2-(3,3,3-trifluoro-2-methylpropyl)-1H-purin-6(9H)-one]: the IC50 is at most 100 nM.
Turning to `CCn1cnc2c(=O)n(-c3ccc(Cl)nc3)c(CC(C)C(F)(F)F)nc21` (stereo not drawn) [Compound 7, 1-(6-chloropyridin-3-yl)-9-ethyl-2-(3,3,3-trifluoro-2-methylpropyl)-1,9-dihydro-6H-purin-6-one], the IC50 was at most 100 nM.
